The record followed here is patent publication US4946838A, “Crystalline anhydrous aztreonam” (priority 1986, dated 1990).

Data set [1] in a line: Hygroscopicity (Equilibrium Moisture Content and rate). The format is physicochemical. The settings on record: for Hygroscopicity: Rate: in words.
Data set [2] is described as follows: Hydration (water content) of crystalline forms. In kind it is physicochemical. The settings on record: for Hydration: in words.
Data set [3] is described as follows: Intrinsic Dissolution Rate. In kind it is physicochemical. Conditions: in words.
Data set [4] in a line: Powder properties (density, surface area, flowability). In kind it is physicochemical. Conditions: in words.
The nature of data set [5]: Differential Scanning Calorimetry (DSC), peak temperatures. The format is physicochemical.
Data set [6] is described as follows: Crystallinity and morphology (microscopy, X-ray diffraction). In kind it is physicochemical.
For data set [7] the following is noted: compared with α-form or simple salts; powder for reconstitution.

Entries after “also recorded” stand apart in the source; their conditions may differ. Read-outs that look alike come from different tables or passages of the source.

With `C[C@H]1[C@H](NC(=O)/C(=N\OC(C)(C)C(=O)O)c2csc(N)n2)C(=O)N1S(=O)(=O)O` [α-Form, [3S-[3α(Z),4β]]-3-[[(2-amino-4-thiazolyl)[(1-carboxy-1-methylethoxy)imino]acetyl]amino]-4-methyl-2-oxo-1-azetidinesulfonic acid], in data set [1], the “Hygroscopicity: EMC (Equilibrium Moisture Content)” value is 0-14% and the “Hygroscopicity: Rate” value is reported as “rapid”. In addition, in data set [2], the “Hydration, water content” value is on record as 7-14 % water and the Hydration entry is recorded as “Hydrous”. In addition, the “Intrinsic Dissolution Rate” value in data set [3] was “slow”. For the same compound, in data set [4], the Density result was “low”, the Flowability result is “poor” and the “Surface Area” value was “high”. Also, the “DSC, peak temperature, exotherm” value in data set [5] (decomp.) was determined as 200 °C. Besides, in data set [5] (dehydration), the “DSC, peak temperature, endotherm” value is 107 °C. Also, in data set [6], the Morphology entry is “needles or rods”, the “Crystallinity: X-ray diffraction” value was “crystalline” and the “Crystallinity: Microscopy” value is given as “birefringent”.
Take `C[C@H]1[C@H](NC(=O)/C(=N\OC(C)(C)C(=O)O)c2csc(N)n2)C(=O)N1S(=O)(=O)O` [β-Form, [3S-[3α(Z),4β]]-3-[[(2-amino-4-thiazolyl)[(1-carboxy-1-methylethoxy)imino]acetyl]amino]-4-methyl-2-oxo-1-azetidinesulfonic acid]: in data set [1], the Hygroscopicity entry is reported as “nonhygroscopic; also recorded: substantially non-hygroscopic”, the “Hygroscopicity: EMC (Equilibrium Moisture Content)” value is recorded as 0-3% and the “Hygroscopicity: Rate” value is on record as “slow”. Besides, the Hygroscopicity result in data set [1] (listed as crystalline, anhydrous form) is “substantially non-hygroscopic”. Besides, the Shelf life entry in data set [7] is reported as “greater than that of the α-form, or for that matter simple salts of the compound”. Further, in data set [2], the “Hydration, water content” value is reported as 0-1 % water and the Hydration result is listed as “Anhydrous”. In addition, the Hydration entry in data set [2] (listed as β-form) is listed as “anhydrous”. The “Intrinsic Dissolution Rate” value in data set [3] was “fast”. In data set [4], the Density entry is reported as “high”, the Flowability result was “good” and the “Surface Area” value is on record as “low”. In addition, in data set [4] (listed as β-form), the Density result is recorded as “dense”. In addition, the “DSC, peak temperature, exotherm” value in data set [5] (decomp, when crystallized from absolute ethanol) was 228 °. Also, in data set [5] (decomp, when crystallized from absolute methanol), the “DSC, peak temperature, exotherm” value came to 238 °. Moreover, the “DSC, endotherm” value in data set [5] (in words) is listed as “none”. In addition, in data set [6], the Morphology entry was “spiny fused spherulites”, the “Crystallinity: X-ray diffraction” value is given as “crystalline” and the “Crystallinity: Microscopy” value was “birefringent”.
